# Data from patent US20250127863A1, “ANTIMICROBIAL PEPTIDE FOR ONYCHOMYCOSIS” (CBMR SCIENTIFIC NANOSCIENCE B.V., priority 2019, published 2025).
# No end group written: not given here.
# Legend:
# Test in all cases: MIC90 growth inhibition
# Proteus spp = format: cell-based; conditions: RPMI 1640 one-fourth strength
# Protocol: (§1) The minimum inhibitory concentration (MIC) value is defined as the lowest sample concentration that inhibited growth. In the Examples, the MIC90 value is presented, which MIC90 values are determined according to established methods known to the person with the skills in the relevant art. Experiments; 1×10E5 CFU of various strains/ml were incubated for 24-48 h at 37° C. in 4× diluted medium of RPMI 1640 with the indicated concentrations of antimicrobial peptide hLF(1-11) [SEQ ID NO: 3]. As controls various strains cells were incubated for 24-48 h at 37° C. with no agent (antimicrobial peptide), and subsequently, growth of the microbial organism (e.g. yeast, bacterium) was monitored by using spectrophotometry with a spectrophotometer at 620 nm. […] ND=Not done. Representative single assay data are listed rather than a range, for clarity reasons and for ease of comparison of peptide efficacy. The MIC was calculated as the lowest antibiotic (antimicrobial peptide) concentration at which growth of the assessed yeast or bacterium (microbe) was inhibited (inhibitory concentration IC90).
# Penicillium expansum = format: cell-based; conditions: RPMI 1640 one-fourth strength
# Protocol: as §1
# [1] = tested on: Malassezia furfur CBS-4172; format: cell-based; conditions: RPMI 1640 one-fourth strength
# Protocol: as §1
# Cryptococcus curvatus = format: cell-based; conditions: RPMI 1640 one-fourth strength
# Protocol: as §1
# Trichophyton spp = format: cell-based; conditions: Trichophyton spp (Table 1); RPMI 1640 one-fourth strength
# Protocol: as §1
# [2] = tested on: Malassezia pachydermatis CBS 1880; format: cell-based; conditions: RPMI 1640 one-fourth strength
# Protocol: as §1
# [3] = tested on: Malassezia furfur CBS 14141; format: cell-based; conditions: RPMI 1640 one-fourth strength
# Protocol: as §1
# Trichophyton mucoides = format: cell-based; conditions: RPMI 1640 one-fourth strength
# Protocol: as §1
# Moraxella catarrhalis = format: cell-based; conditions: RPMI 1640 one-fourth strength
# Protocol: as §1
# Cladosporium spp = format: cell-based; conditions: RPMI 1640 one-fourth strength
# Protocol: as §1
# Nannizzia otae = format: cell-based; conditions: RPMI 1640 one-fourth strength
# Protocol: as §1
# Zygosaccharomyces bailii = format: cell-based; conditions: RPMI 1640 one-fourth strength
# Protocol: as §1
# Aspergillus ungius = format: cell-based; conditions: RPMI 1640 one-fourth strength
# Protocol: as §1
# Exophiala dermatitidis = format: cell-based; conditions: RPMI 1640 one-fourth strength
# Protocol: as §1
# Penicillium spp = format: cell-based; conditions: RPMI 1640 one-fourth strength
# Protocol: as §1
# [4] = tested on: Malassezia furfur CBS 1878; format: cell-based; conditions: RPMI 1640 one-fourth strength
# Protocol: as §1
# C. neoformans = format: cell-based; conditions: RPMI 1640 one-fourth strength
# Protocol: as §1
# [5] = tested on: Staphylococcus aureus (MRSA); format: cell-based; conditions: RPMI 1640 one-fourth strength
# Protocol: as §1
# Absidia corymbifera = format: cell-based; conditions: RPMI 1640 one-fourth strength
# Protocol: as §1
# Fonsecaea pedrosoi = format: cell-based; conditions: RPMI 1640 one-fourth strength
# Protocol: as §1
# Trichophyton tonsurans = format: cell-based; conditions: RPMI 1640 one-fourth strength
# Protocol: as §1
# [6] = tested on: Malassezia furfur CBS-7982; format: cell-based; conditions: RPMI 1640 one-fourth strength
# Protocol: as §1
# Aspergillus niger = format: cell-based; conditions: RPMI 1640 one-fourth strength
# Protocol: as §1
# Vibrio cholerae = format: cell-based; conditions: RPMI 1640 one-fourth strength
# Protocol: as §1
# [7] = tested on: Cryptococcus neoformans ▴ SKN7 (UMC); format: cell-based; conditions: genetically modified type species, RPMI 1640 one-fourth strength
# Protocol: as §1
# [8] = tested on: Malassezia furfur CBS 9595; format: cell-based; conditions: RPMI 1640 one-fourth strength
# Protocol: as §1
# Cryptococcus gattii = format: cell-based; conditions: RPMI 1640 one-fourth strength
# Protocol: as §1
# Epidermophyton floccosum = format: cell-based; conditions: RPMI 1640 one-fourth strength
# Protocol: as §1
# [9] = tested on: M. guilliermondii CBS-2030 (Perugia); format: cell-based; conditions: RPMI 1640 one-fourth strength
# Protocol: as §1
# Penicillium pinophilum = format: cell-based; conditions: RPMI 1640 one-fourth strength
# Protocol: as §1
# Geotrichium spp = format: cell-based; conditions: RPMI 1640 one-fourth strength
# Protocol: as §1
# Rhizopus spp = format: cell-based; conditions: RPMI 1640 one-fourth strength
# Protocol: as §1
# Aspergillus tamarii = format: cell-based; conditions: RPMI 1640 one-fourth strength
# Protocol: as §1
# [10] = tested on: Saccharomyces cerevisiae spp; format: cell-based; conditions: RPMI 1640 one-fourth strength
# Protocol: as §1
# Aspergillus spp = format: cell-based; conditions: RPMI 1640 one-fourth strength
# Protocol: as §1
# [11] = tested on: Malassezia restricta CBS 7877; format: cell-based; conditions: RPMI 1640 one-fourth strength
# Protocol: as §1
# Aspergillus sydowii = format: cell-based; conditions: RPMI 1640 one-fourth strength
# Protocol: as §1
# Dekkera bruxellensis = format: cell-based; conditions: RPMI 1640 one-fourth strength
# Protocol: as §1
# [12] = tested on: Cryptococcus uniguttulatus; format: cell-based; conditions: RPMI 1640 one-fourth strength
# Protocol: as §1
# Fusarium solani = format: cell-based; conditions: RPMI 1640 one-fourth strength
# Protocol: as §1
# Fusarium oxysporum = format: cell-based; conditions: RPMI 1640 one-fourth strength
# Protocol: as §1
# Trichophyton rubrum = format: cell-based; conditions: RPMI 1640 one-fourth strength
# Protocol: as §1
# Torula spp = format: cell-based; conditions: RPMI 1640 one-fourth strength
# Protocol: as §1
# C. kefyr = format: cell-based, Candida kefyr; conditions: RPMI 1640 one-fourth strength
# Protocol: as §1
sequence,measurement,setting,value
"GRRRRSVQWCA [hLF1-11, Gly Arg Arg Arg Arg Ser Val Gln Trp Cys Ala]",Inhibitory concentration MIC (MIC90),Proteus spp,MIC = 6.3 μg/ml
same,Inhibitory concentration MIC (MIC90),Penicillium expansum,MIC = 16 μM
same,Inhibitory concentration MIC (MIC90),[1],MIC = 50 μg/ml
same,Inhibitory concentration MIC (MIC90),Cryptococcus curvatus,MIC = 9 μg/ml
same,Inhibitory concentration MIC (MIC90),Trichophyton spp,MIC = 6.3-45 μg/ml
same,Inhibitory concentration MIC (MIC90),[2],MIC = 25-50 μg/mL
same,Inhibitory concentration MIC (MIC90),[3],MIC = 12.5-50 μg/mL
same,Inhibitory concentration MIC (MIC90),Trichophyton mucoides,MIC = 12.5-50 μg/ml
same,Inhibitory concentration MIC (MIC90),Moraxella catarrhalis,MIC = 2 μg/ml
same,Inhibitory concentration MIC (MIC90),Cladosporium spp,MIC = 3.1-12.5 μg/ml
same,Inhibitory concentration MIC (MIC90),Nannizzia otae,MIC = 60 μg/ml
same,Inhibitory concentration MIC (MIC90),Zygosaccharomyces bailii,MIC = 8 μM
same,Inhibitory concentration MIC (MIC90),Aspergillus ungius,MIC = 3.1-25 μg/ml
same,Inhibitory concentration MIC (MIC90),Exophiala dermatitidis,MIC = 2 μg/ml
same,Inhibitory concentration MIC (MIC90),Penicillium spp,MIC = 12.5-50 μg/ml
same,Inhibitory concentration MIC (MIC90),[4],MIC = 12.5-50 μg/mL
same,Inhibitory concentration MMC,C. neoformans,MMC = 50 μg/ml
same,Inhibitory concentration MIC (MIC90),[5],MIC = 1.6 μg/ml
same,Inhibitory concentration MIC (MIC90),Absidia corymbifera,MIC = 40 μg/ml
same,Inhibitory concentration MIC (MIC90),Fonsecaea pedrosoi,MIC = 5 μg/ml
same,Inhibitory concentration MIC (MIC90),Trichophyton tonsurans,MIC = 5-40 μg/ml
same,Inhibitory concentration MIC (MIC90),[6],MIC = 100 μg/ml
same,Inhibitory concentration MIC (MIC90),Aspergillus niger,MIC = 50 μg/mL
same,Inhibitory concentration MIC (MIC90),Vibrio cholerae,MIC = 12.5 μg/ml
same,Inhibitory concentration MIC (MIC90),[7],MIC = 6.3 μg/ml
same,Inhibitory concentration MIC (MIC90),[8],MIC = 25-50 μg/mL
same,Inhibitory concentration MIC (MIC90),Cryptococcus gattii,MIC = 64 μg/mL
same,Inhibitory concentration MIC (MIC90),Epidermophyton floccosum,MIC = 0.31-2.5 μg/ml
same,Inhibitory concentration MIC (MIC90),[9],MIC = 50 μg/mL
same,Inhibitory concentration MIC (MIC90),Penicillium pinophilum,MIC = 45 μg/ml
same,Inhibitory concentration MIC (MIC90),Geotrichium spp,MIC = 50 μg/mL
same,Inhibitory concentration MIC (MIC90),Rhizopus spp,MIC = 25 μg/mL
same,Inhibitory concentration MIC (MIC90),Aspergillus tamarii,MIC = 2.5-12.5 μg/ml
same,Inhibitory concentration MIC (MIC90),[10],MIC = 0.63-50 μg/ml
same,Inhibitory concentration MIC (MIC90),Aspergillus spp,MIC = 2.5-12.5 μg/ml
same,Inhibitory concentration MIC (MIC90),[11],MIC = 50 μg/mL
same,Inhibitory concentration MIC (MIC90),Aspergillus sydowii,MIC = 2.5-12.5 μg/ml
same,Inhibitory concentration MIC (MIC90),Dekkera bruxellensis,MIC = 3.75-20 μM
same,Inhibitory concentration MIC (MIC90),[12],MIC = 6 μg/ml
same,Inhibitory concentration MIC (MIC90),Fusarium solani,MIC = 8-16 μM
same,Inhibitory concentration MIC (MIC90),Fusarium oxysporum,MIC = 8-16 μM
same,Inhibitory concentration MIC (MIC90),Trichophyton rubrum,MIC = 13-60 μg/ml
same,Inhibitory concentration MIC (MIC90),Torula spp,MIC = 40 μg/ml
same,Inhibitory concentration MIC (MIC90),C. kefyr,MIC = 2.5-12.5 μg/ml
